“Also recorded” adds a separate entry of the source.
Tests used:
[1] = Fluorescence stability (decomposition) in aqueous solution; format: physicochemical; conditions: 37° C.
Description: (FIG. 2B) 5TGM1 cells were treated with DMSO or with 20 μM 2, 4, 3, or 7 dissolved in DMSO for 3 days and subjected to XTT assays. Percentages of growth were determined by comparing treated groups with control groups (DMSO). Each data point derived from four independent groups receiving exactly the same treatment was plotted as mean±SD. Results are representative of three independent experiments. […] The values of I/I0 were plotted as a function of time and shown in the inset. I0 was the initial fluorescence intensity of 4 at 0 h. […] The values of I/I0 were plotted as a function of time and shown in the inset. I0 was the initial fluorescence intensity of 5 at 0 h. […] (FIG. 2G) The decomposition rates of 7 and 8 were plotted as a function of time in RPMI media incubated at 37° C. Aliquots were analyzed by HPLC and the peaks integrated.
FIGS. 5A-5J illustrate the finding that installation of a boronate cage cleavable by H2O2 stabilizes the 1,3-dioxane acetal protective group of D-F07 to allow for temporal inhibition of XBP-1s upon contact with H2O2. (FIG. 5A) A scheme showing that installation of a boronate-caged group stabilizes the 1,3-dioxane acetal protective group to allow for H2O2-mediated release of intact D-F07. (FIG. 5B) The fluorescence of BC-D-F07a (2.5 μM in the DMSO/PBS solution (v/v=1:99), Ex=360 nm) increases upon incubation with 0 to 200 μM hydrogen peroxide at room temperature for 1 h. (FIG. 5C) The fluorescence of BC-D-F07b (2.5 μM in the DMSO/PBS solution (v/v=1:99), Ex=360 nm) increases upon incubation with 0 to 2 mM hydrogen peroxide at 37° C. for 1 h. […] I0 was the initial fluorescence intensity of D-F07, BC-D-F07a or BC-D-F07b at 0 h. (FIG. 5E) The levels of hydrogen peroxide produced by 5TGM1, 72-h LPS-stimulated primary CLL, MEC2, and WaC3 cells were measured by Amplex Red with or without the addition of extracellular catalase (500 U/mL). (FIG. 5F) 5TGM1 cells were treated with BC-D-F07a at increasing concentrations for 24 h, lysed, and analyzed for the expression of indicated proteins by immunoblots. (FIG. 5G) CD5+ CLL cells purified from spleens of Eμ-TCL1 mice were stimulated with […], subsequently treated with BC-D-F07a at 20 μM for 16 h, and then incubated with hydrogen peroxide at indicated concentrations for another 4 h. Cells were lysed and analyzed for the expression of indicated proteins by immunoblots. […] Cells were lysed and analyzed for the expression of indicated proteins by immunoblots. […] Percentages of growth were determined by comparing treated groups with control groups (DMSO). […]
UV-vis and fluorescence spectra were carried out on a BioTek SYNERGY™ NEO2 instrument (96 well plate).

[2] = system: XBP-1s expression, 5TGM1 cells; experiment: XBP-1s immunoblot in 5TGM1 multiple myeloma cells; format: cell-based, mouse; conditions: for inhibition of XBP-1s expression, short term: 2.5 μM for 1, 2 or 4 h; for suppression of XBP-1s expression, long term: 10 μM for a course of 3 days
Description: 5TGM1 mouse multiple myeloma cells, primary mouse B cells, primary mouse Eμ-TCL1 CLL cells, and human CLL cell lines (MEC2 and WaC3) were cultured at 37° C. in a 5% CO2 incubator using RPMI 1640 media (Gibco) supplemented with 10% heat-inactivated FBS, 2 mM L-glutamine, 100 U/mL penicillin G sodium, 1 mM sodium pyruvate, 0.1 mM non-essential amino acids, 100 μg/mL streptomycin sulfate and 0.1 mM β-mercaptoethanol (β-ME).
(§1) Cells were lysed using RIPA buffer (10 mM Tris-HCl, pH 7.4, 150 mM NaCl, 1% NP-40, 0.5% sodium deoxycholate, 0.1% SDS, and 1 mM EDTA) supplemented with protease inhibitors (Roche). Protein concentrations were determined by BCA assays (Pierce).
(§2) Samples were boiled in SDS-PAGE sample buffer (62.5 mM Tris-HCl, pH 6.8, 2% SDS, 10% glycerol, 0.1% bromophenol blue) with β-ME and analyzed by SDS-PAGE. Proteins were transferred to nitrocellulose membranes, blocked in 5% nonfat milk (wt/vol in PBS), and immunoblotted with indicated primary antibodies and appropriate horseradish peroxidase-conjugated secondary antibodies. Immunoblots were developed using Western Lighting Chemiluminescence Reagent (PerkinElmer).
To develop inhibitors with improved potency to target the IRE1/XBP-1 pathway, tricyclic chromenone-based IRE1 RNase inhibitors with different amine group (R^1) were synthesized and compared: allyloxycarbonyl (alloc) in B-H09 (1), —H in C-B06 (2), and —CH3 in C-D06 (3) (FIG. 1A). 5TGM1 multiple myeloma cells were chosen to evaluate inhibitory effects of these inhibitors because they have constitutively activated IRE1/XBP-1 pathways.

5TGM1 cells = experiment: Cell proliferation XTT assay, 5TGM1; format: cell-based, mouse
Description: 5TGM1 cells were suspended in phenol red-free RPMI media, seeded in 96-well cell culture plates, and treated with indicated IRE1 inhibitors (20 μM, unless indicated otherwise). At indicated time points, cells were spun down and cell proliferation was assessed by XTT assays (Roche) according to the manufacturer's instructions. Briefly, 50 μl XTT labeling reagent, 1 μl electron-coupling reagent, and 100 μl phenol red-free RPMI media were combined and applied to each well of the 96-well plates. Cells were incubated for 4 h in a CO2 incubator to allow for the yellow tetrazolium salt XTT to be cleaved by mitochondrial dehydrogenases of metabolically active cells to form the orange formazan dye, which can be quantified at 492 nm using a BioTek SYNERGY™ NEO2 Multimode Reader.

[3] = system: XBP-1s expression, LPS-stimulated primary mouse B cells; experiment: XBP-1s immunoblot in LPS-stimulated primary B cells; format: cell-based; conditions: 2.5 or 5 μM for 2 h
Description: FIG. 8 illustrates chemical structures of 6, 4, 7, 8, and 9. Primary B cells purified from spleens of wild-type mice were stimulated with LPS for 72 h, subsequently treated with indicated inhibitors at 2.5 or 5 μM for 2 h, lysed, and analyzed for the expression of indicated proteins by immunoblots.
as §1, §2
LPS-stimulated primary mouse B cells were similarly treated with the same inhibitors at 2.5 or 5 μM for 2 h. […] HPLC degradation experiments confirmed that this was indeed the case (FIG. 2G).

[4] = Compound degradation HPLC assay; format: physicochemical; conditions: 37° C.
Description: A 20 mM DMSO stock solution of analyte compounds (7, 8, D-F07, PC-D-F07 and TC-D-F07) were diluted to 400 μM with PBS, pH 7.4, or to 800 μM with RMPI plus 10% FBS culture media (experiments with TC-D-F07 were performed using RPMI without FBS). After incubation at 37° C., aliquots at various time points were injected onto an analytical HPLC instrument and the peaks integrated (UV monitored at 220 nm). Intact compound relative to t=0 was plotted as a function of time.

WaC3 cells = experiment: Cell proliferation XTT assay, WaC3; format: cell-based, human; conditions: 20 μM for a course of 3 days
MEC2 cells = experiment: Cell proliferation XTT assay, MEC2; format: cell-based, human; conditions: indicated concentrations, 24 h

SMILES: COc1cc2c3c(c(=O)oc2c(C2OCCCO2)c1B1OC(C)(C)C(C)(C)O1)CN(C)CC3 [BC-D-F07b, 7-(1,3-dioxan-2-yl)-9-methoxy-3-methyl-8-(4,4,5,5-tetramethyl-1,3,2-dioxaborolan-2-yl)-3,4-dihydro-1H-chromeno[3,4-c]pyridin-5(2H)-one]
- hydrolysis of 1,3-dioxane acetal by fluorescence decay ([1]; aqueous solution, 0 to 48 h, versus D-F07): stabilized the 1,3-dioxane acetal protecting group

SMILES: CN1CCc2c(c(=O)oc3c(C=O)c(O)ccc23)C1 [Compound 3]
- inhibition of XBP-1s expression, short term [2]: began to lose its inhibitory effect within 4 h
- inhibition of XBP-1s expression ([2]; 10 μM for 0, 3, 6, 12 or 24 h): rapidly inhibited the expression of XBP-1s; also recorded: much better long-term inhibitory activities than 1
- suppression of XBP-1s expression, long term [2]: recovered significantly in cells treated for 2 days
- overall comparison of inhibition of IRE-1 / XBP-1s expression in whole cells ([2]; summary statement): most efficient aldehyde compounds in inhibiting IRE-1 in intact cells

SMILES: CC1(C)COC(c2c(O)ccc3c4c(c(=O)oc23)CNCC4)OC1 [Compound 5, 7-(5,5-dimethyl-1,3-dioxan-2-yl)-8-hydroxy-3,4-dihydro-1H-chromeno[3,4-c]pyridin-5(2H)-one]
- fluorescence intensity remaining (decomposition) ([1]; PBS with 1% DMSO, 48 h, from 100%): approximately 60%

SMILES: CN1CCc2c(c(=O)oc3c(C4OCCCO4)c(O)ccc23)C1 [Compound 7, 7-(1,3-dioxan-2-yl)-8-hydroxy-3-methyl-1,2,3,4-tetrahydro-5H-chromeno[3,4-c]pyridin-5-one]
- suppression of XBP-1s expression, long term [2]: continuously suppressed even after 3-day treatment; also recorded: more effective than 8 in suppressing the expression of XBP-1s for a longer term
- concentration that effectively blocks XBP-1s expression ([2]; 24 h): 10 µM
- growth inhibition / cytotoxicity (XTT) (5TGM1 cells; 20 μM for a course of 3 days): more potent than their respective aldehyde counterparts

SMILES: CC(=O)N/N=C/c1c(O)ccc2c3c(c(=O)oc12)CN(C)CC3 [Compound 8, (E)-N′-((8-hydroxy-3-methyl-5-oxo-1,3,4,5-tetrahydro-2H-chromeno[3,4-c]pyridin-7-yl)methylene)acetohydrazide]
- inhibition of XBP-1s expression, short term [2]: rapidly inhibited XBP-1s; also recorded: effectively inhibit the expression of XBP-1s for longer than 4 h; also recorded: inhibited the expression of XBP-1s more rapidly than 7
- suppression of XBP-1s expression, long term [2]: lost its inhibitory effect after treatment for 2 days
- suppression of XBP-1s expression [3]: rapidly suppressed the expression of XBP-1s
- hydrolysis rate (HPLC degradation) ([4]; RPMI media): faster hydrolysis relative to 7

SMILES: COc1cc2c3c(c(=O)oc2c(/C=N/NC(C)=O)c1O)CN(C)CC3 [Compound 10, (E)-N′-((8-hydroxy-9-methoxy-3-methyl-5-oxo-1,3,4,5-tetrahydro-2H-chromeno[3,4-c]pyridin-7-yl)methylene)acetohydrazide]
- inhibition of XBP-1s expression, short term [2]: suppressed the expression of XBP-1s more rapidly than 8
- suppression of XBP-1s expression, long term [2]: exhibited a long-term inhibitory effect; also recorded: slightly recovered in cells treated with 10 for 3 days
- growth suppression (XTT) (WaC3 cells): initially more potent than 7 and 8 in suppressing WaC3 cell growth; also recorded: incapable of continuously inhibiting the growth of WaC3 cells

SMILES: N[C@@H](CSc1ccc([N+](=O)[O-])cc1[N+](=O)[O-])C(=O)O [Compound 12, (S-2,4-Dinitrophenyl)cysteine]
- expression of XBP-1s (ER stress induction) ([2]; 10 μM, 0 to 24 h): time-dependent increased expression of XBP-1s
- cytotoxicity / growth inhibition (XTT) (MEC2 cells): not cytotoxic to MEC2 cells

SMILES: COc1cc2c3c(c(=O)oc2c(C2OCCCO2)c1OC(C)c1ccc(C(=O)OCC[Si](C)(C)C)cc1[N+](=O)[O-])CN(C)CC3 [PC-D-F07, 2-(trimethylsilyl)ethyl 4-(1-((7-(1,3-dioxan-2-yl)-9-methoxy-3-methyl-5-oxo-1,3,4,5-tetrahydro-2H-chromeno[3,4-c]pyridin-8-yl)oxy)ethyl)-3-nitrobenzoate]
- suppression of XBP-1s after removal of compound from media ([2]; 10 μM 4 h, washed, UV 10 min, 8 h culture): suppression of XBP-1s expression
- stability (HPLC) ([4]; PBS, 48 h): completely stable
- stability (HPLC) ([4]; RPMI media, 96 h): completely stable

SMILES: COc1cc2c3c(c(=O)oc2c(C2OCCCO2)c1OS(=O)(=O)c1ccc([N+](=O)[O-])cc1[N+](=O)[O-])CN(C)CC3 [TC-D-F07, 7-(1,3-dioxan-2-yl)-9-methoxy-3-methyl-5-oxo-1,3,4,5-tetrahydro-2H-chromeno[3,4-c]pyridin-8-yl 2,4-dinitrobenzenesulfonate]
- suppression of XBP-1s expression ([2]; 2.5 μM, 3 h): significantly suppress the expression of XBP-1s
- levels of XBP-1s, time course ([2]; 2.5 μM, 12 h): the levels of XBP-1s began to recover
- levels of XBP-1s, time course ([2]; 10 μM, 0 to 12 h): initially increased after 3-h treatment and subsequently decreased in response to continuous 12-h treatment
- levels of XBP-1s ([2]; 10 and 20 μM, 3 h): levels of XBP-1s increased
- cytotoxicity (XTT) (5TGM1 cells; 0, 2.5, 5, 10 or 20 μM, 24 h): more cytotoxic than D-F07
- cytotoxicity / growth inhibition (XTT) (MEC2 cells): potently inhibited the growth of these cells
- intact compound ([4]; 4-h incubation in both PBS and RPMI media): 90%
- decomposition rate (HPLC) versus D-F07 ([4]; PBS): slower decomposition rate

Source: patent publication US11833137B2, “Substituted chromenones, IRE1 inhibitors, and methods of using same” (The Wistar Institute, priority 2018, dated 2023)
